# According to the Kinase Knowledgebase extract (Sharma et al. 2016):
# Target: ROCK2 (human) (UniProt O75116)
# Assay: Inhibition of ROCK2 Kinase Activity
# Sequence of ROCK2 (human) (O75116 whole entry, looked up): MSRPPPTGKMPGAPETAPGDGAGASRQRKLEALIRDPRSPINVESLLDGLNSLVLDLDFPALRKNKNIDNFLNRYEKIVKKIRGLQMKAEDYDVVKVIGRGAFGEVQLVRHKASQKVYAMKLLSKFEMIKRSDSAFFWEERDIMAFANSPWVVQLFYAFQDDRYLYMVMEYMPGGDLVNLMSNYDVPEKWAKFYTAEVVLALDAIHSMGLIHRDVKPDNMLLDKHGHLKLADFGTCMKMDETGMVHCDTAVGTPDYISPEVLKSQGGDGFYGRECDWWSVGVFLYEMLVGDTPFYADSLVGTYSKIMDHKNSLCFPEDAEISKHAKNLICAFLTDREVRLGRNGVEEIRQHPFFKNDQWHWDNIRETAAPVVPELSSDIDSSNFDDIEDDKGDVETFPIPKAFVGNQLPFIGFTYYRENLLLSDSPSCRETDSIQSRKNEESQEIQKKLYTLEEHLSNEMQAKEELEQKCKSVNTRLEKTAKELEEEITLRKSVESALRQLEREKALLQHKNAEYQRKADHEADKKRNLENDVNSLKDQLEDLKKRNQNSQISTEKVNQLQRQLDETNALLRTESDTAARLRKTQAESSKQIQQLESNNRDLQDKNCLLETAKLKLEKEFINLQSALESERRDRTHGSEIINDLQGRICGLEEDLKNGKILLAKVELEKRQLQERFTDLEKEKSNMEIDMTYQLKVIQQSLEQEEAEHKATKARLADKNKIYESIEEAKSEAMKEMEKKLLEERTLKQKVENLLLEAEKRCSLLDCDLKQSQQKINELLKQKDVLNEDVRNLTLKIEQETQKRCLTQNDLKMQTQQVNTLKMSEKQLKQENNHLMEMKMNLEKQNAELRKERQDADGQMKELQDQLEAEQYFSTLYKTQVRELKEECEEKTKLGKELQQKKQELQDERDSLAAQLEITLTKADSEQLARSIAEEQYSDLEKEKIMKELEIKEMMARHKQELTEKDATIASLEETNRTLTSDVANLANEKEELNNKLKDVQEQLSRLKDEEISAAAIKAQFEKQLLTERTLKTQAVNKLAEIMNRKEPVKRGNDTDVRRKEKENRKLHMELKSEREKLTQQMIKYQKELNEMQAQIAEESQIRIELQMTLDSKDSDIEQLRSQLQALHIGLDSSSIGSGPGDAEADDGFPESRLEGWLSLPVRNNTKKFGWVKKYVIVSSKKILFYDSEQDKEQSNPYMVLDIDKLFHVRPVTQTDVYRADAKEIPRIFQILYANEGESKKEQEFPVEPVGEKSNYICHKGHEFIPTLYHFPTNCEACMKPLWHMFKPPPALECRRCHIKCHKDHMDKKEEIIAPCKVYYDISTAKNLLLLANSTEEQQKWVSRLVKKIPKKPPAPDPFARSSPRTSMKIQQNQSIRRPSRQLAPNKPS
row,SMILES,IC50
1,CN(CC(N)c1ccc(C(=O)Nc2ccncc2)cc1)S(=O)(=O)c1ccc(Cl)cc1 (configuration not stated),500 to 5000 nM
2,CC[C@H](NC(=O)C(N)c1ccc(C(=O)Nc2ccncc2)cc1)c1ccccc1 (some centres not stated),500 to 5000 nM
3,NC(c1ccc(C(=O)Nc2ccncc2)cc1)C1CCCN1S(=O)(=O)c1ccc(F)cc1 (configuration not stated),500 to 5000 nM
4,NC(C(=O)NCC1CCCO1)c1ccc(C(=O)Nc2ccncc2)cc1 (configuration not stated),500 to 5000 nM
5,COc1ccc(CN2CCN(C(=O)C(N)c3ccc(C(=O)Nc4ccncc4)cc3)CC2)cc1 (configuration not stated),500 to 5000 nM
6,COCC(C)NC(=O)C(N)c1ccc(C(=O)Nc2ccncc2)cc1 (configuration not stated),500 to 5000 nM
7,NC(C(=O)NCc1ccccn1)c1ccc(C(=O)Nc2ccncc2)cc1 (configuration not stated),500 to 5000 nM
8,NC(CNS(=O)(=O)c1ccc(-c2ccccc2)cc1)c1ccc(C(=O)Nc2ccncc2)cc1 (configuration not stated),500 to 5000 nM
9,NC(c1ccc(C(=O)Nc2ccncc2)cc1)C1CCCN1S(=O)(=O)c1cccc(F)c1 (configuration not stated),500 to 5000 nM
10,CN(C)CCNC(=O)C(N)c1ccc(C(=O)Nc2ccncc2)cc1 (configuration not stated),500 to 5000 nM
11,COc1ccc(CN2CCN(C(=O)CC(N)c3ccc(C(=O)Nc4ccncc4)cc3)CC2)cc1 (configuration not stated),500 to 5000 nM
12,CC(C)N1CCN(C(=O)C(N)c2ccc(C(=O)Nc3ccncc3)cc2)CC1 (configuration not stated),500 to 5000 nM
13,NC(C(=O)N1CCN(CCO)CC1)c1ccc(C(=O)Nc2ccncc2)cc1 (configuration not stated),500 to 5000 nM
14,CC(C)C(C)NC(=O)C(N)c1ccc(C(=O)Nc2ccncc2)cc1 (configuration not stated),500 to 5000 nM
15,NC(C(=O)NCCn1cccn1)c1ccc(C(=O)Nc2ccncc2)cc1 (configuration not stated),500 to 5000 nM
16,NC(C(=O)NC1CCN(Cc2ccccc2)CC1)c1ccc(C(=O)Nc2ccncc2)cc1 (configuration not stated),500 to 5000 nM
17,NC(C(=O)N1CCN(Cc2ccc(F)cc2)CC1)c1ccc(C(=O)Nc2ccncc2)cc1 (configuration not stated),500 to 5000 nM
18,NC(c1ccc(C(=O)Nc2ccncc2)cc1)C1CCCN1S(=O)(=O)c1cccc(Cl)c1 (configuration not stated),500 to 5000 nM
19,COc1ccc(S(=O)(=O)N2CCCC2C(N)c2ccc(C(=O)Nc3ccncc3)cc2)cc1 (configuration not stated),500 to 5000 nM
20,NC(CNS(=O)(=O)c1cccc(Oc2ccccc2)c1)c1ccc(C(=O)Nc2ccncc2)cc1 (configuration not stated),500 to 5000 nM
21,Cc1nn(C)c(Cl)c1S(=O)(=O)NCC(N)c1ccc(C(=O)Nc2ccncc2)cc1 (configuration not stated),500 to 5000 nM
22,NC(C(=O)NCC1CC1)c1ccc(C(=O)Nc2ccncc2)cc1 (configuration not stated),500 to 5000 nM

row,SMILES,IC50
1,NC(C(=O)N1CCC(O)(c2ccccc2)CC1)c1ccc(C(=O)Nc2ccncc2)cc1 (configuration not stated),500 to 5000 nM
2,CN(CC(N)c1ccc(C(=O)Nc2ccncc2)cc1)S(=O)(=O)c1ccccc1F (configuration not stated),500 to 5000 nM
3,NC(C(=O)NCCN1CCOCC1)c1ccc(C(=O)Nc2ccncc2)cc1 (configuration not stated),500 to 5000 nM
4,NC(CC(=O)N1CCc2c([nH]c3ccccc23)C1c1cccc(Cl)c1)c1ccc(C(=O)Nc2ccncc2)cc1 (configuration not stated),500 to 5000 nM
5,NC(c1ccc(C(=O)Nc2ccncc2)cc1)C1CCCN1S(=O)(=O)c1ccccc1Cl (configuration not stated),500 to 5000 nM
6,CN(CC(N)c1ccc(C(=O)Nc2ccncc2)cc1)S(=O)(=O)c1ccccc1Cl (configuration not stated),500 to 5000 nM
7,CCC(C)(C)NC(=O)C(N)c1ccc(C(=O)Nc2ccncc2)cc1 (configuration not stated),500 to 5000 nM
8,NC(CNS(=O)(=O)c1ccccc1)c1ccc(C(=O)Nc2ccncc2)cc1 (configuration not stated),< 500 nM
9,CS(=O)(=O)NCC(N)c1ccc(C(=O)Nc2ccncc2)cc1 (configuration not stated),< 500 nM
10,Cc1cccc(S(=O)(=O)NCC(N)c2ccc(C(=O)Nc3ccncc3)cc2)c1 (configuration not stated),< 500 nM
11,CN(CC(N)c1ccc(C(=O)Nc2ccncc2)cc1)S(=O)(=O)c1cccc(Cl)c1 (configuration not stated),500 to 5000 nM
12,CN(CC(N)c1ccc(C(=O)Nc2ccncc2)cc1)S(=O)(=O)c1cccc(F)c1 (configuration not stated),500 to 5000 nM
13,CN(CC(N)c1ccc(C(=O)Nc2ccncc2)cc1)S(=O)(=O)c1ccc(F)cc1 (configuration not stated),500 to 5000 nM
14,NC(CC(=O)N1CCOCC1c1ccccc1)c1ccc(C(=O)Nc2ccncc2)cc1 (configuration not stated),< 500 nM
15,NC(C(=O)NCCc1cccs1)c1ccc(C(=O)Nc2ccncc2)cc1 (configuration not stated),< 500 nM
16,COC(=O)c1ccc2c(c1)CCN(C(=O)CC(N)c1ccc(C(=O)Nc3ccncc3)cc1)C2 (configuration not stated),500 to 5000 nM
17,CCCS(=O)(=O)NCC(N)c1ccc(C(=O)Nc2ccncc2)cc1 (configuration not stated),< 500 nM
18,NC(CNS(=O)(=O)c1ccccc1F)c1ccc(C(=O)Nc2ccncc2)cc1 (configuration not stated),< 500 nM
19,NC(CNS(=O)(=O)c1ccc(Oc2ccccc2)cc1)c1ccc(C(=O)Nc2ccncc2)cc1 (configuration not stated),500 to 5000 nM
20,NC(c1ccc(C(=O)Nc2ccncc2)cc1)C1CCCN1S(=O)(=O)c1ccc(Cl)cc1 (configuration not stated),500 to 5000 nM
21,COc1cccc(C2CCCCN2C(=O)CC(N)c2ccc(C(=O)Nc3ccncc3)cc2)c1 (configuration not stated),< 500 nM
22,NC(C(=O)NCCn1ccnc1)c1ccc(C(=O)Nc2ccncc2)cc1 (configuration not stated),500 to 5000 nM

row,SMILES,IC50
1,N[C@@H](C(=O)NCc1ccccc1)c1ccc(C(=O)Nc2ccncc2)cc1,500 to 5000 nM
2,NC(C(=O)N1CCN(Cc2ccccc2F)CC1)c1ccc(C(=O)Nc2ccncc2)cc1 (configuration not stated),500 to 5000 nM
3,NC(CC(=O)N1CC=C(c2ccc(F)cc2)CC1)c1ccc(C(=O)Nc2ccncc2)cc1 (configuration not stated),< 500 nM
4,COCCNC(=O)C(N)c1ccc(C(=O)Nc2ccncc2)cc1 (configuration not stated),500 to 5000 nM
5,CONC(=O)C(N)c1ccc(C(=O)Nc2ccncc2)cc1 (configuration not stated),500 to 5000 nM
6,NC(C(=O)NCCc1ccc(F)cc1)c1ccc(C(=O)Nc2ccncc2)cc1 (configuration not stated),< 500 nM
7,NC(CNS(=O)(=O)Cc1ccccc1)c1ccc(C(=O)Nc2ccncc2)cc1 (configuration not stated),< 500 nM
8,Cc1ccc(CN2CCC(NC(=O)C(N)c3ccc(C(=O)Nc4ccncc4)cc3)CC2)s1 (configuration not stated),500 to 5000 nM
9,NC(CNS(=O)(=O)c1cccc2ccccc12)c1ccc(C(=O)Nc2ccncc2)cc1 (configuration not stated),< 500 nM
10,NC(C(=O)NCCc1ccccc1)c1ccc(C(=O)Nc2ccncc2)cc1 (configuration not stated),< 500 nM
11,COc1ccc(NC(=O)C(N)c2ccc(C(=O)Nc3ccncc3)cc2)cc1 (configuration not stated),< 500 nM
12,NC(CNS(=O)(=O)c1ccc(F)cc1)c1ccc(C(=O)Nc2ccncc2)cc1 (configuration not stated),< 500 nM
13,NC(CC(=O)N1CCCC1c1ccccc1)c1ccc(C(=O)Nc2ccncc2)cc1 (configuration not stated),< 500 nM
14,NC(C(=O)NCc1ccco1)c1ccc(C(=O)Nc2ccncc2)cc1 (configuration not stated),< 500 nM
15,NC(CC(=O)N1CCN(Cc2ccc(F)cc2)CC1)c1ccc(C(=O)Nc2ccncc2)cc1 (configuration not stated),< 500 nM
16,NC(C(=O)N1CCC(Cc2ccccc2)CC1)c1ccc(C(=O)Nc2ccncc2)cc1 (configuration not stated),500 to 5000 nM
17,CC1CN(C(=O)CC(N)c2ccc(C(=O)Nc3ccncc3)cc2)CC(C)O1 (configuration not stated),< 500 nM
18,NC(C(=O)N1CCOCC1)c1ccc(C(=O)Nc2ccncc2)cc1 (configuration not stated),< 500 nM
19,COc1ccc(C2c3[nH]c4ccccc4c3CCN2C(=O)CC(N)c2ccc(C(=O)Nc3ccncc3)cc2)cc1Br (configuration not stated),500 to 5000 nM
20,NC(CC(=O)N1CCc2ccccc2C1)c1ccc(C(=O)Nc2ccncc2)cc1 (configuration not stated),< 500 nM
21,CC1CC(C)CN(C(=O)CC(N)c2ccc(C(=O)Nc3ccncc3)cc2)C1 (configuration not stated),< 500 nM

# The remaining lines, values ahead:
row,IC50,SMILES
1,< 500 nM,NC(CC(=O)N1CCCC1c1cccc(Cl)c1)c1ccc(C(=O)Nc2ccncc2)cc1 (configuration not stated)
2,< 500 nM,COc1ccccc1CNC(=O)C(N)c1ccc(C(=O)Nc2ccncc2)cc1 (configuration not stated)
3,< 500 nM,NC(CC(=O)N1CCc2c(Cl)cccc2C1)c1ccc(C(=O)Nc2ccncc2)cc1 (configuration not stated)
4,< 500 nM,NC(C(=O)N1CCC(c2nc3ccccc3o2)CC1)c1ccc(C(=O)Nc2ccncc2)cc1 (configuration not stated)
5,< 500 nM,N[C@H](CC(=O)N1CCC[C@@H]1c1cccc(F)c1)c1ccc(C(=O)Nc2ccncc2)cc1
6,< 500 nM,N[C@@H](CC(=O)N1CCC[C@H]1c1cccc(F)c1)c1ccc(C(=O)Nc2ccncc2)cc1
7,< 500 nM,NC(CC(=O)N1CCOCC1)c1ccc(C(=O)Nc2ccncc2)cc1 (configuration not stated)
8,< 500 nM,NC(CC(=O)N1CCN(Cc2ccccc2F)CC1)c1ccc(C(=O)Nc2ccncc2)cc1 (configuration not stated)
9,< 500 nM,NC(CC(=O)N1CCCCC1c1cc(Cl)ccc1Cl)c1ccc(C(=O)Nc2ccncc2)cc1 (configuration not stated)
10,< 500 nM,NC(CNS(=O)(=O)c1cccc2nsnc12)c1ccc(C(=O)Nc2ccncc2)cc1 (configuration not stated)
11,< 500 nM,CC(C)N1CCN(C(=O)CC(N)c2ccc(C(=O)Nc3ccncc3)cc2)CC1 (configuration not stated)
12,< 500 nM,NC(CC(=O)N1CCCC2CCCCC21)c1ccc(C(=O)Nc2ccncc2)cc1 (configuration not stated)
13,< 500 nM,CCCCS(=O)(=O)NCC(N)c1ccc(C(=O)Nc2ccncc2)cc1 (configuration not stated)
14,< 500 nM,NC(CC(=O)N1Cc2ccccc2C1)c1ccc(C(=O)Nc2ccncc2)cc1 (configuration not stated)
15,< 500 nM,N[C@H](C(=O)NCc1ccccc1)c1ccc(C(=O)Nc2ccncc2)cc1
16,< 500 nM,NC(CC(=O)N1CCCC(CO)C1)c1ccc(C(=O)Nc2ccncc2)cc1 (configuration not stated)
17,< 500 nM,NC(CC(=O)N1CCCC1c1ccc(F)cc1F)c1ccc(C(=O)Nc2ccncc2)cc1 (configuration not stated)
18,< 500 nM,NC(CC(=O)N1CCCCC1c1cccc2ccccc12)c1ccc(C(=O)Nc2ccncc2)cc1 (configuration not stated)
19,< 500 nM,COc1ccc(S(=O)(=O)N(C)C[C@@H](N)c2ccc(C(=O)Nc3ccncc3)cc2)cc1

row,IC50,SMILES
1,< 500 nM,Cc1noc(C)c1S(=O)(=O)NCC(N)c1ccc(C(=O)Nc2ccncc2)cc1 (configuration not stated)
2,< 500 nM,NC(CC(=O)N1CCN(C(=O)c2ccco2)CC1)c1ccc(C(=O)Nc2ccncc2)cc1 (configuration not stated)
3,< 500 nM,Cc1ccccc1S(=O)(=O)NCC(N)c1ccc(C(=O)Nc2ccncc2)cc1 (configuration not stated)
4,< 500 nM,NC(CC(=O)N1CCCC1c1ccc(F)cc1)c1ccc(C(=O)Nc2ccncc2)cc1 (configuration not stated)
5,< 500 nM,COc1ccc(OC)c(S(=O)(=O)NCC(N)c2ccc(C(=O)Nc3ccncc3)cc2)c1 (configuration not stated)
6,< 500 nM,COc1ccc(S(=O)(=O)N(C)CC(N)c2ccc(C(=O)Nc3ccncc3)cc2)cc1 (configuration not stated)
7,< 500 nM,NC(CC(=O)N1CCCC1c1cc(F)ccc1F)c1ccc(C(=O)Nc2ccncc2)cc1 (configuration not stated)
8,< 500 nM,NC(CC(=O)N1CCSC1)c1ccc(C(=O)Nc2ccncc2)cc1 (configuration not stated)
9,< 500 nM,NC(CC(=O)N1CCCCC1)c1ccc(C(=O)Nc2ccncc2)cc1 (configuration not stated)
10,< 500 nM,COc1ccc(S(=O)(=O)NCC(N)c2ccc(C(=O)Nc3ccncc3)cc2)cc1 (configuration not stated)
11,< 500 nM,NC(CC(=O)N1CCCCC1c1ccc(Cl)cc1)c1ccc(C(=O)Nc2ccncc2)cc1 (configuration not stated)
12,< 500 nM,NC(C(=O)NCc1ccccc1Cl)c1ccc(C(=O)Nc2ccncc2)cc1 (configuration not stated)
13,< 500 nM,NC(C(=O)NC1Cc2ccccc2C1)c1ccc(C(=O)Nc2ccncc2)cc1 (configuration not stated)
14,< 500 nM,NC(CC(=O)N1CCC(c2nc3ccccc3o2)CC1)c1ccc(C(=O)Nc2ccncc2)cc1 (configuration not stated)
15,< 500 nM,N[C@@H](CC(=O)N1CCC[C@@H]1c1cccc(F)c1)c1ccc(C(=O)Nc2ccncc2)cc1
16,< 500 nM,NC(CC(=O)N1CCN(CCO)CC1)c1ccc(C(=O)Nc2ccncc2)cc1 (configuration not stated)
17,< 500 nM,NC(CC(=O)N1CCC(c2ccccc2)CC1)c1ccc(C(=O)Nc2ccncc2)cc1 (configuration not stated)
18,< 500 nM,COC(=O)c1ccc(C2CCCCN2C(=O)CC(N)c2ccc(C(=O)Nc3ccncc3)cc2)cc1 (configuration not stated)
